Results taken from US9149038B2, “4-amino-6-(heterocyclic)picolinates and 6-amino-2-(heterocyclic)pyrimidine-4-carboxylates and their use as herbicides” (Dow AgroSciences LLC, priority 2013, dated 2015).
Where two headings read alike, the source gives them in different places.

What was measured:
[1] = tested on: Key Broadleaf Weed and Crop Species; experiment: Post-Emergent Test II: postemergent herbicidal activity, visual rating after 14 d (Table 7); type: in vivo; details: post-emergence, 336 h; for pest or weed control at 35 g/ha: 35 g ai/ha; for pest or weed control at 70 g/ha: 70 g ai/ha; for pest or weed control at 140 g/ha: 140 g ai/ha
How it was run: (§1)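 Plants were raised in a greenhouse for 7-21 d and treated once at the first or second true leaf stage. Compounds, dissolved in 97:3 acetone:DMSO then diluted into an aqueous acetone/isopropanol/crop oil/Triton X-155 carrier, were applied by overhead track sprayer at 187 L/ha. After 14 d with subirrigation, injury was scored visually from 0 (none) to 100 (complete kill).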

[2] = tested on: Key Grass and Sedge Weeds as well as Grass Crops; experiment: Post-Emergent Test II: postemergent herbicidal activity, visual rating after 14 d (Table 8); type: in vivo; details: post-emergence, 336 h; for pest or weed control at 35 g/ha: 35 g ai/ha; for pest or weed control at 70 g/ha: 70 g ai/ha; for pest or weed control at 140 g/ha: 140 g ai/ha
How it was run: as §1

[3] = lambsquarters (Chenopodium album), read-out: Visual Growth Reduction (%) 14 Days After Application CHEAL
[4] = oilseed rape, canola (Brassica napus), read-out: Visual Growth Reduction (%) 14 Days After Application BRSNN
[5] = redroot pigweed (Amaranthus retroflexus), read-out: Visual Growth Reduction (%) 14 Days After Application AMARE
[6] = sunflower (Helianthus annuus), read-out: Visual Growth Reduction (%) 14 Days After Application HELAN
[7] = velvetleaf (Abutilon theophrasti), read-out: Visual Growth Reduction (%) 14 Days After Application ABUTH
[8] = wild poinsettia (Euphorbia heterophylla), read-out: Visual Growth Reduction (%) 14 Days After Application EPHHL
[9] = barnyardgrass (Echinochloa crus-galli), read-out: Visual Growth Reduction (%) 14 Days After Application ECHCG
[10] = giant foxtail (Setaria faberi), read-out: Visual Growth Reduction (%) 14 Days After Application SETFA
[11] = maize, corn (Zea mays), read-out: Visual Growth Reduction (%) 14 Days After Application ZEAMX
[12] = rice (Oryza sativa), read-out: Visual Growth Reduction (%) 14 Days After Application ORYSA
[13] = wheat, spring (Triticum aestivum), read-out: Visual Growth Reduction (%) 14 Days After Application TRZAS
[14] = yellow nutsedge (Cyperus esculentus), read-out: Visual Growth Reduction (%) 14 Days After Application CYPES

In the case of COC(=O)c1nc(-c2cccc3c2OC(F)(F)O3)c(F)c(N)c1Cl [Compound 73], the pest or weed control at 35 g/ha [1, 3] is reported as 95 to 100%, the pest or weed control at 70 g/ha [1, 3] is reported as 95 to 100% and the pest or weed control at 140 g/ha [1, 3] is reported as 95 to 100%. The pest or weed control at 35 g/ha [1, 4] was 85 to 94%, the pest or weed control at 70 g/ha [1, 4] was 95 to 100% and the pest or weed control at 140 g/ha [1, 4] was 95 to 100%. For the same molecule, the pest or weed control at 35 g/ha [1, 5] was 95 to 100%, the pest or weed control at 70 g/ha [1, 5] was 95 to 100% and the pest or weed control at 140 g/ha [1, 5] was 95 to 100%. It also gave a pest or weed control at 35 g/ha [1, 6] of 75 to 84%, a pest or weed control at 70 g/ha [1, 6] of 85 to 94% and a pest or weed control at 140 g/ha [1, 6] of 95 to 100%. The pest or weed control at 35 g/ha [1, 7] was 75 to 84%, the pest or weed control at 70 g/ha [1, 7] was 75 to 84% and the pest or weed control at 140 g/ha [1, 7] was 85 to 94%. The pest or weed control at 35 g/ha [1, 8] was 0 to 29%, the pest or weed control at 70 g/ha [1, 8] was 0 to 29% and the pest or weed control at 140 g/ha [1, 8] was 0 to 29%. The pest or weed control at 35 g/ha [2, 9] was 0 to 29%, the pest or weed control at 70 g/ha [2, 9] was 0 to 29% and the pest or weed control at 140 g/ha [2, 9] was 0 to 29%. For the same molecule, the pest or weed control at 35 g/ha [2, 10] was 0 to 29%, the pest or weed control at 70 g/ha [2, 10] was 0 to 29% and the pest or weed control at 140 g/ha [2, 10] was 0 to 29%. The pest or weed control at 35 g/ha [2, 11] was 0 to 29%, the pest or weed control at 70 g/ha [2, 11] was 0 to 29% and the pest or weed control at 140 g/ha [2, 11] was 0 to 29%. For the same molecule, the pest or weed control at 35 g/ha [2, 12] was 0 to 29%, the pest or weed control at 70 g/ha [2, 12] was 0 to 29% and the pest or weed control at 140 g/ha [2, 12] was 0 to 29%. For the same molecule, the pest or weed control at 35 g/ha [2, 13] was 0 to 29%, the pest or weed control at 70 g/ha [2, 13] was 0 to 29% and the pest or weed control at 140 g/ha [2, 13] was 0 to 29%. The pest or weed control at 35 g/ha [2, 14] was 0 to 29%, the pest or weed control at 70 g/ha [2, 14] was 45 to 59% and the pest or weed control at 140 g/ha [2, 14] was 45 to 59%.
